Measurements: article PMC5161045 (Journal of Antimicrobial Chemotherapy, 2016)

Test system: S. aureus DA36424
Test: Bacterial cell survival assay with human defensins
Format: cell-based, Staphylococcus aureus
Conditions: strain DA36424; 10 μM peptide, NaPB pH 7.4, exponential phase cells, 37°C, 2 h

## AFTCHCRRSCYSTEYSYGTCTVMGINHRFCCL (bicyclic or more) [HNP6]
  bacterial survival after defensin exposure, relative to WT (in words): significantly reduced survival
